Measurements reported in PubChem BioAssay (NCI).
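48-hour exposure; five concentrations; linearly interpolated endpoints. Here, GI50 denotes the concentration required for 50% inhibition of growth. Definition used: TGI = concentration required for complete inhibition of growth.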

Key:
Assay in all cases: DTP human tumour cell line panel, 48 h
[1] = tested on: OVCAR-4 ovarian
[2] = tested on: SK-MEL-2 melanoma
[3] = tested on: KM12 colon
[4] = tested on: PC-3 prostate
[5] = tested on: U251 CNS
[6] = tested on: LOX IMVI melanoma
[7] = tested on: SNB-75 CNS
[8] = tested on: T-47D breast
[9] = tested on: SF-295 CNS
[10] = tested on: SF-539 CNS

| Compound | GI50 [1] [µM] | TGI [1] [µM] | GI50 [2] [µM] | TGI [2] [µM] | GI50 [3] [µM] | TGI [3] [µM] | GI50 [4] [µM] | TGI [4] [µM] | GI50 [5] [µM] | TGI [5] [µM] | GI50 [6] [µM] | TGI [6] [µM] | GI50 [7] [µM] | TGI [7] [µM] | GI50 [8] [µM] | TGI [8] [µM] | GI50 [9] [µM] | TGI [9] [µM] | GI50 [10] [µM] | TGI [10] [µM] |
| --- | --- | --- | --- | --- | --- | --- | --- | --- | --- | --- | --- | --- | --- | --- | --- | --- | --- | --- | --- | --- |
| CO[C@@H]1CCN(c2nccc(Nc3cc4c(C(C)C)ccc(N5CC(CS(C)(=O)=O)[C@H]5C)c4cn3)n2)C[C@@H]1F (stereo partly drawn) | 2.92 | 53.1 | 4.7 | 17.6 | 3.14 | > 100 | 3.52 | > 100 | 4.31 | > 100 | 4.34 | 16.8 | 5.85 | > 100 | 2.47 | 13.4 | 3.15 | 10.1 | 5.05 | 24.3 |
| Cc1cc(-c2nnc(/C=C/c3ccc4c(c3)OCO4)o2)n[nH]1 | 23.7 | > 50 | 12.1 | > 50 | 2.15 | > 50 | 7.87 | > 50 | 13.6 | > 50 | 15.9 | > 50 | 9.02 | 36.2 | 22 | > 50 | 7.04 | 38 | 12.5 | > 50 |
| CC(C)(C)OC(=O)NCCCCn1c2c(c3ccccc3c1=O)C(=O)c1ccccc1-2 | 47.8 | > 100 | 52.1 | > 100 | 28.9 | > 100 | 8.71 | > 100 | 15.9 | 37.6 | 12.5 | 36.7 | 35.4 | > 100 | 21.9 | 79.8 | 16.5 | 56.1 | 25.9 | 62.8 |
| CC1=C(/C=C/C(=O)CC(=O)/C=C/C2=C(C)CCCC2(C)C)C(C)(C)CCC1 | 21.7 | > 100 | 20.3 | 77.8 | 32.9 | > 100 | 17.6 | 75.2 | 29.2 | > 100 | 18.5 | 81 | 49.6 | > 100 | 41.5 | > 100 | 15.6 | 54.4 | 26 | > 100 |
| CC(C)(C)c1cc(C(=O)Nc2ccc(C(=O)NCCN)cc2)cc(C(C)(C)C)c1 | 2.71 | 11 | 2.15 | 4.85 | 2.22 | 5.14 | 3.07 | 11 | 1.91 | 3.88 | 1.65 | 3.16 | 4.02 | 24.5 | 2.07 | 5.58 | 1.73 | 3.47 | 1.68 | 3.41 |
| [N-]=[N+]=NCCCn1c2c(c3ccc([N+](=O)[O-])cc3c1=O)C(=O)c1cc3c(cc1-2)OCO3 | 4.83 | > 100 | 2.58 | 22.3 | – | 5.01 | 2.24 | > 100 | < 0.0174 | 1.04 | < 0.01 | 1.02 | – | > 100 | 0.656 | > 100 | < 0.012 | < 0.0428 | < 0.0171 | < 0.0363 |
